This passage reports IC50 results from patent US20230081426A1, “COMPOUNDS AND METHODS FOR KRAS MODULATION AND INDICATIONS THEREFOR” (Plexxikon Inc., priority 2020, published 2023).

The target of assay [1] is T1, G12D-mutant human KRAS (amino acid residues 1-188) (Homo sapiens, UniProt P01116, G12D).
T1 construct: G12D or G12C-mutant human KRAS (amino acid residues 1-188) with FLAG tag; made in house; host or cells: E. coli
Nature of the assay: KRAS Binding Disruption Assay (AlphaScreen; biotinylated KRpep-2d analogue or RAF1-RBD), G12D. As to conditions: KRAS G12D; geometric mean; read-out: KRAS GMean IC50 (uM) MUTATION: G12D. In short, it runs like this: (§1)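 AlphaScreen readout: signal falls as compound displaces biotinylated KRpep-2d analogue or RAF1-RBD from mutant KRAS. Both partners at 5-20 nM, 1 h binding at 25° C, then 10 μg/mL Anti-Flag acceptor and streptavidin donor beads for 1 h. IC50 by nonlinear regression of % inhibition.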
A general note: Alpha assays give light when donor and acceptor beads are brought close together.

Assay [2] has as its target T2, G12C-mutant human KRAS (amino acid residues 1-188) (Homo sapiens, UniProt P01116, G12C).
T2 construct: G12D or G12C-mutant human KRAS (amino acid residues 1-188) with FLAG tag; made in house; host or cells: E. coli
Nature of the assay: KRAS Binding Disruption Assay (AlphaScreen; biotinylated KRpep-2d analogue or RAF1-RBD), G12C. As to conditions: geometric mean, read-out: KRAS GMean IC50 (uM) MUTATION: G12C. In short, it runs like this: as §1

T1 sequence (P01116 1-188 isoform P01116-2 G12D): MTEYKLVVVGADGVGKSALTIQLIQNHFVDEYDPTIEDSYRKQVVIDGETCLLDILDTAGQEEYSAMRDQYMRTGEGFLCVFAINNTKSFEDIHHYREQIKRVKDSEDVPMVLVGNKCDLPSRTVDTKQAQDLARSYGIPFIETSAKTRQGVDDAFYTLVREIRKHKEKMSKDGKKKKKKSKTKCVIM
T2 sequence (P01116 1-188 isoform P01116-2 G12C): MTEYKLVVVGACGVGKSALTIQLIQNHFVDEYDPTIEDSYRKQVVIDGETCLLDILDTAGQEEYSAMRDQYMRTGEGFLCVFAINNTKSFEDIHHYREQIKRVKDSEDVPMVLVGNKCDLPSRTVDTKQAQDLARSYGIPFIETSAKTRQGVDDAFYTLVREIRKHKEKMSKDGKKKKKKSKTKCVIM

What is called IC50 is the concentration that inhibits the measured activity by half. Turning to `Oc1cc(-c2ccc3c(N4C[C@H]5CC[C@@H](C4)N5)nc(OCC4CC4(F)F)nc3c2F)c2ccccc2c1` (stereo partly drawn) [P-0741, 4-(4-((1R,5S)-3,8-diazabicyclo[3.2.1]octan-3-yl)-2-((2,2-difluorocyclopropyl)methoxy)-8-fluoroquinazolin-7-yl)naphthalen-2-ol], the results for the IC50 in assay [1] and in assay [2] were 0.0001 to 10 µM and 10 to 100 µM, respectively.
The corresponding values for `CN1C(=O)CCC1COc1nc(N2C[C@H]3CC[C@@H](C2)N3)c2ccc(-c3cc(O)cc4ccccc34)c(F)c2n1` (stereo partly drawn) [P-0742, 5-(((4-((1R,5S)-3,8-diazabicyclo[3.2.1]octan-3-yl)-8-fluoro-7-(3-hydroxynaphthalen-1-yl)quinazolin-2-yl)oxy)methyl)-1-methylpyrrolidin-2-one] are 0.0001 to 10 µM and 10 to 100 µM.
The corresponding values for `O=C(O)CCOc1nc(N2C[C@H]3CC[C@@H](C2)N3)c2ccc(-c3cc(O)cc4ccccc34)c(F)c2n1` [P-0743, 3-((4-((1R,5S)-3,8-diazabicyclo[3.2.1]octan-3-yl)-8-fluoro-7-(3-hydroxynaphthalen-1-yl)quinazolin-2-yl)oxy)propanoic acid] are 0.0001 to 10 µM and 10 to 100 µM.
Taken in the same sequence, the figures for `CC(C)(C)OC(=O)COc1nc(N2C[C@H]3CC[C@@H](C2)N3)c2ccc(-c3cc(O)cc4ccccc34)c(F)c2n1` [P-0744, tert-butyl 2-((4-((1R,5S)-3,8-diazabicyclo[3.2.1]octan-3-yl)-8-fluoro-7-(3-hydroxynaphthalen-1-yl)quinazolin-2-yl)oxy)acetate] were 0.0001 to 10 µM and 10 to 100 µM.
Regarding `O=C(O)COc1nc(N2C[C@H]3CC[C@@H](C2)N3)c2ccc(-c3cc(O)cc4ccccc34)c(F)c2n1` [P-0745, 2-((4-((1R,5S)-3,8-diazabicyclo[3.2.1]octan-3-yl)-8-fluoro-7-(3-hydroxynaphthalen-1-yl)quinazolin-2-yl)oxy)acetic acid], the IC50 in assay [1] is 0.0001 to 10 µM; in assay [2] it was 10 to 100 µM.
Taken in the same sequence, the figures for `Fc1cc2c(N3C[C@H]4CC[C@@H](C3)N4)nc(OCC34CCCN3CCC4)nc2c(F)c1-c1c[nH]c2c(F)ccc(F)c12` [P-0746, 4-((1R,5S)-3,8-diazabicyclo[3.2.1]octan-3-yl)-7-(4,7-difluoro-1H-indol-3-yl)-6,8-difluoro-2-((tetrahydro-1H-pyrrolizin-7a(5H)-yl)methoxy)quinazoline] were 0.0001 to 10 µM and 10 to 100 µM.
For `Fc1cc(F)c2[nH]cc(-c3c(F)cc4c(N5C[C@H]6CC[C@@H](C5)N6)nc(OCC56CCCN5CCC6)nc4c3F)c2c1` [P-0747, 4-((1R,5S)-3,8-diazabicyclo[3.2.1]octan-3-yl)-7-(5,7-difluoro-1H-indol-3-yl)-6,8-difluoro-2-((tetrahydro-1H-pyrrolizin-7a(5H)-yl)methoxy)quinazoline], the IC50 was in the range of 0.0001 to 10 µM in assay [1] and 10 to 100 µM in assay [2].
Taken in the same sequence, the figures for `CC(F)(F)COc1nc(N2C[C@H]3CC[C@@H](C2)N3)c2ccc(-c3cc(O)cc4ccccc34)c(F)c2n1` [P-0748, 4-(4-((1R,5S)-3,8-diazabicyclo[3.2.1]octan-3-yl)-2-(2,2-difluoropropoxy)-8-fluoroquinazolin-7-yl)naphthalen-2-ol] were 0.0001 to 10 µM and 10 to 100 µM.
`Oc1cc(-c2ccc3c(N4C[C@H]5CC[C@@H](C4)N5)nc(OCC(F)F)nc3c2F)c2ccccc2c1` [P-0749, 4-(4-((1R,5S)-3,8-diazabicyclo[3.2.1]octan-3-yl)-2-(2,2-difluoroethoxy)-8-fluoroquinazolin-7-yl)naphthalen-2-ol]: the figures for the concentration for half-maximal inhibition (IC50) in assay [1] and in assay [2] were 0.0001 to 10 µM and 10 to 100 µM, respectively.
The corresponding values for `Oc1cc(-c2ccc3c(N4C[C@H]5CC[C@@H](C4)N5)nc(OCC4CCC4)nc3c2F)c2ccccc2c1` [P-0750, 4-(4-((1R,5S)-3,8-diazabicyclo[3.2.1]octan-3-yl)-2-(cyclobutylmethoxy)-8-fluoroquinazolin-7-yl)naphthalen-2-ol] are 0.0001 to 10 µM and 10 to 100 µM.
Taken in the same sequence, the figures for `N#CC1CC(COc2nc(N3C[C@H]4CC[C@@H](C3)N4)c3ccc(-c4cc(O)cc5ccccc45)c(F)c3n2)C1` (stereo partly drawn) [P-0751, 3-(((4-((1R,5S)-3,8-diazabicyclo[3.2.1]octan-3-yl)-8-fluoro-7-(3-hydroxynaphthalen-1-yl)quinazolin-2-yl)oxy)methyl)cyclobutane-1-carbonitrile] were 0.0001 to 10 µM and 10 to 100 µM.
With `Oc1cc(-c2ccc3c(N4C[C@H]5CC[C@@H](C4)N5)nc(OCC4CCC(F)(F)CC4)nc3c2F)c2ccccc2c1` [P-0752, 4-(4-((1R,5S)-3,8-diazabicyclo[3.2.1]octan-3-yl)-2-((4,4-difluorocyclohexyl)methoxy)-8-fluoroquinazolin-7-yl)naphthalen-2-ol], the IC50 in assay [1] fell in the range of 0.0001 to 10 µM; in assay [2], 10 to 100 µM.
The corresponding values for `CN(C)CCOc1nc(N2C[C@H]3CC[C@@H](C2)N3)c2ccc(-c3cc(O)cc4ccccc34)c(F)c2n1` [P-0753, 4-(4-((1R,5S)-3,8-diazabicyclo[3.2.1]octan-3-yl)-2-(2-(dimethylamino)ethoxy)-8-fluoroquinazolin-7-yl)naphthalen-2-ol] are 0.0001 to 10 µM and 0.0001 to 10 µM.
The corresponding values for `CNCCc1nc(N2C[C@H]3CC[C@@H](C2)N3)c2ccc(-c3cc(O)cc4ccccc34)c(F)c2n1` [P-0754, 4-(4-((1R,5S)-3,8-diazabicyclo[3.2.1]octan-3-yl)-8-fluoro-2-(2-(methylamino)ethyl)quinazolin-7-yl)naphthalen-2-ol] are 0.0001 to 10 µM and 10 to 100 µM.
The corresponding values for `CC(CCBr)Oc1nc(N2C[C@H]3CC[C@@H](C2)N3)c2ccc(-c3cc(O)cc4ccccc34)c(F)c2n1` (stereo partly drawn) [P-0755, 4-(4-((1R,5S)-3,8-diazabicyclo[3.2.1]octan-3-yl)-2-((4-bromobutan-2-yl)oxy)-8-fluoroquinazolin-7-yl)naphthalen-2-ol] are 0.0001 to 10 µM and 10 to 100 µM.
On to `CN1CCC[C@H]1COc1nc(N2C[C@H]3CC[C@@H](C2)N3)c2cc(F)c(-c3c[nH]c4ccc(Cl)nc34)c(F)c2n1` [P-0756, 4-((1R,5S)-3,8-diazabicyclo[3.2.1]octan-3-yl)-7-(5-chloro-1H-pyrrolo[3,2-b]pyridin-3-yl)-6,8-difluoro-2-(((S)-1-methylpyrrolidin-2-yl)methoxy)quinazoline], for which the IC50 in assay [1] lay in the range of 0.0001 to 10 µM; in assay [2] it was 100 to 1000 µM.
The corresponding values for `CN1CCC[C@H]1COc1nc(N2C[C@H]3CC[C@@H](C2)N3)c2cc(F)c(-c3c[nH]c4ccc(C(F)(F)F)cc34)c(F)c2n1` [P-0757, 4-((1R,5S)-3,8-diazabicyclo[3.2.1]octan-3-yl)-6,8-difluoro-2-(((S)-1-methylpyrrolidin-2-yl)methoxy)-7-(5-(trifluoromethyl)-1H-indol-3-yl)quinazoline] are 0.0001 to 10 µM and 100 to 1000 µM.
Taken in the same sequence, the figures for `Cc1ccc2[nH]cc(-c3c(F)cc4c(N5C[C@H]6CC[C@@H](C5)N6)nc(OC[C@@H]5CCCN5C)nc4c3F)c2c1` [P-0758, 4-((1R,5S)-3,8-diazabicyclo[3.2.1]octan-3-yl)-6,8-difluoro-7-(5-methyl-1H-indol-3-yl)-2-(((S)-1-methylpyrrolidin-2-yl)methoxy)quinazoline] were 0.0001 to 10 µM and 100 to 1000 µM.
For the molecule `CN1CCC[C@H]1COc1nc(N2C[C@H]3CC[C@@H](C2)N3)c2cc(F)c(-c3c[nH]c4cc(F)ccc34)c(F)c2n1` [P-0759, 4-((1R,5S)-3,8-diazabicyclo[3.2.1]octan-3-yl)-6,8-difluoro-7-(6-fluoro-1H-indol-3-yl)-2-(((S)-1-methylpyrrolidin-2-yl)methoxy)quinazoline], the IC50 in assay [1] was 0.0001 to 10 µM; in assay [2] it was 10 to 100 µM.
Taken in the same sequence, the figures for `CN1CCC[C@H]1COc1nc(N2C[C@H]3CC[C@@H](C2)N3)c2ccc(-c3cc(N)nc4ccccc34)c(F)c2n1` [P-0760, 4-(4-((1R,5S)-3,8-diazabicyclo[3.2.1]octan-3-yl)-8-fluoro-2-(((S)-1-methylpyrrolidin-2-yl)methoxy)quinazolin-7-yl)quinolin-2-amine] were 0.0001 to 10 µM and 10 to 100 µM.
The corresponding values for `CN1CCC[C@H]1COc1nc(N2C[C@H]3CC[C@@H](C2)N3)c2ccc(-c3cc(=O)[nH]c4ccccc34)c(F)c2n1` [P-0761, 4-(4-((1R,5S)-3,8-diazabicyclo[3.2.1]octan-3-yl)-8-fluoro-2-(((S)-1-methylpyrrolidin-2-yl)methoxy)quinazolin-7-yl)quinolin-2(1H)-one] are 0.0001 to 10 µM and 100 to 1000 µM.
Taken in the same sequence, the figures for `CN1CCC[C@H]1COc1nc(N2C[C@H]3CC[C@@H](C2)N3)c2ccc(-c3nccc4cccc(C(F)(F)F)c34)c(F)c2n1` [P-0762, 4-((1R,5S)-3,8-diazabicyclo[3.2.1]octan-3-yl)-8-fluoro-2-(((S)-1-methylpyrrolidin-2-yl)methoxy)-7-(8-(trifluoromethyl)isoquinolin-1-yl)quinazoline] were 10 to 100 µM and 10 to 100 µM.
On to `Fc1ccc2[nH]cc(-c3ccc4c(N5C[C@H]6CC[C@@H](C5)N6)nc(OCC56CCCN5CCC6)nc4c3F)c2c1F` [P-0763, 4-((1R,5S)-3,8-diazabicyclo[3.2.1]octan-3-yl)-7-(4,5-difluoro-1H-indol-3-yl)-8-fluoro-2-((tetrahydro-1H-pyrrolizin-7a(5H)-yl)methoxy)quinazoline], for which the IC50 in assay [1] and in assay [2] was 0.0001 to 10 µM in each case.
Turning to `Fc1c(-c2c[nH]c3cccc(F)c23)ccc2c(N3C[C@H]4CC[C@@H](C3)N4)nc(OCC34CCCN3CCC4)nc12` [P-0764, 4-((1R,5S)-3,8-diazabicyclo[3.2.1]octan-3-yl)-8-fluoro-7-(4-fluoro-1H-indol-3-yl)-2-((tetrahydro-1H-pyrrolizin-7a(5H)-yl)methoxy)quinazoline], the IC50 in assay [1] and in assay [2] was 0.0001 to 10 µM throughout.
